Reference: publication PMC6199744, “Development of Chemical Proteomics for the Folateome and Analysis of the Kinetoplastid Folateome” (ACS Infectious Diseases, 2018)
Read-outs that look alike come from different tables or passages of the source.

Key:
Assay type in all cases: binding
[1] = molecular target: T1, HeLa cell extract proteins (Homo sapiens, UniProt A3KMH1)
T1 construct: endogenous in cells; host or cells: HeLa cell extract

[2] = molecular target: T2, HeLa cell extract proteins (Homo sapiens, UniProt P34897)
T2 construct: endogenous in cells; host or cells: HeLa cell extract
T2 sequence (P34897 30-504): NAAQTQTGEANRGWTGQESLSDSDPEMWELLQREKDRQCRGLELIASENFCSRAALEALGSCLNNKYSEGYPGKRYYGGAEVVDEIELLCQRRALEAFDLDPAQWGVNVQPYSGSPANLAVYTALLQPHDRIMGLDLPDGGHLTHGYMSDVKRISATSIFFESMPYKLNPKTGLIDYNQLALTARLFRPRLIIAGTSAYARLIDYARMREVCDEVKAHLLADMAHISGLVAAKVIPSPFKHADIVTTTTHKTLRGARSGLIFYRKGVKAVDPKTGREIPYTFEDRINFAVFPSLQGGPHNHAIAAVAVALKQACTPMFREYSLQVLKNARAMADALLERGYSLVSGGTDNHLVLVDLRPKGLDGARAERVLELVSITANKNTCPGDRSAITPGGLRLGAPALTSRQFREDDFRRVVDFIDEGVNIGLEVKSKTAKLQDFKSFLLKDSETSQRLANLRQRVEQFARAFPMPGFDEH

[3] = molecular target: T3, HeLa cell extract proteins (Homo sapiens, UniProt Q92621)
T3 construct: endogenous in cells; host or cells: HeLa cell extract

[4] = molecular target: T4, HeLa cell extract proteins (Homo sapiens, UniProt Q9UI12)
T4 construct: endogenous in cells; host or cells: HeLa cell extract

[5] = molecular target: T5, HeLa cell extract proteins (Homo sapiens, UniProt P60709)
T5 construct: endogenous in cells; host or cells: HeLa cell extract

[6] = molecular target: T6, HeLa cell extract proteins (Homo sapiens, UniProt Q96EY1)
T6 construct: endogenous in cells; host or cells: HeLa cell extract
T6 sequence (Q96EY1 1-480): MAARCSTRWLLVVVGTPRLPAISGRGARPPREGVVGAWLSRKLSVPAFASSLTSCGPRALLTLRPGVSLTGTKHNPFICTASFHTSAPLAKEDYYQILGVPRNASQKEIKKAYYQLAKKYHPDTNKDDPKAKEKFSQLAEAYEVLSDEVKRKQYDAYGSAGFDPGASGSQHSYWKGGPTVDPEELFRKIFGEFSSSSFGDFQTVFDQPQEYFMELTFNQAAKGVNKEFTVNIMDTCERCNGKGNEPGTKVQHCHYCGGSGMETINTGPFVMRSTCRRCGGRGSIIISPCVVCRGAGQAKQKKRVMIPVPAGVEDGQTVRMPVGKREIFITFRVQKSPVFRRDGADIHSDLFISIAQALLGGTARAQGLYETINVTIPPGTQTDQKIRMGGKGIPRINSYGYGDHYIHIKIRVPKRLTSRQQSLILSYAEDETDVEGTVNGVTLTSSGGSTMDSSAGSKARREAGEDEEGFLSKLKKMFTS

[7] = molecular target: T7, HeLa cell extract proteins (Homo sapiens, UniProt Q5SRE5)
T7 construct: endogenous in cells; host or cells: HeLa cell extract

[8] = molecular target: T8, HeLa cell extract proteins (Homo sapiens, UniProt Q9Y678)
T8 construct: endogenous in cells; host or cells: HeLa cell extract
T8 sequence (Q9Y678 1-874): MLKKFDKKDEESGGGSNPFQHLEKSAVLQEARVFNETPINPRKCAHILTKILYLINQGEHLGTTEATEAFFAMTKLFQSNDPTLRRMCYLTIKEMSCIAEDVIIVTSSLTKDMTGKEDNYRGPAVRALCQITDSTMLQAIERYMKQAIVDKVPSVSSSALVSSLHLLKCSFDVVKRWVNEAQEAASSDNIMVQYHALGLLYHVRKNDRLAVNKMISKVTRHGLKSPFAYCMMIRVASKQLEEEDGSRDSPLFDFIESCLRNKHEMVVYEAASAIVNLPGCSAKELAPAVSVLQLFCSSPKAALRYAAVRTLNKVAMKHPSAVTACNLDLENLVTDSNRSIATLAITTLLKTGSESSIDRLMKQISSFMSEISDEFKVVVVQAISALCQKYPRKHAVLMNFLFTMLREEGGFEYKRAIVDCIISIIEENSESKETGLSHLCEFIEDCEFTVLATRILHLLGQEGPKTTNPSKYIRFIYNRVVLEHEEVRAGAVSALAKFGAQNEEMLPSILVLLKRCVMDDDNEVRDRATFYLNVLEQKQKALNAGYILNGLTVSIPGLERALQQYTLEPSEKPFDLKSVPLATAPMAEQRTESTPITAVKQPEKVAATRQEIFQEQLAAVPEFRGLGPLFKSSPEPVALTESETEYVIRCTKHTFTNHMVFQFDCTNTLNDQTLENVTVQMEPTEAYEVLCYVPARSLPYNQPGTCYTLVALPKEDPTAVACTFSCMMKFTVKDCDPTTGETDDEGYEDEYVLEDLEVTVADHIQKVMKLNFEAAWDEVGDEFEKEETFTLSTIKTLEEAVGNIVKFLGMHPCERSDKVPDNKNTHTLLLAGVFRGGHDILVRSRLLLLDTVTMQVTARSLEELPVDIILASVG

[9] = molecular target: T9, HeLa cell extract proteins (Homo sapiens, UniProt O00299)
T9 construct: endogenous in cells; host or cells: HeLa cell extract

[10] = molecular target: T10, HeLa cell extract proteins (Homo sapiens, UniProt Q63HN8)
T10 construct: endogenous in cells; host or cells: HeLa cell extract

T4 sequence (Q9UI12 whole entry): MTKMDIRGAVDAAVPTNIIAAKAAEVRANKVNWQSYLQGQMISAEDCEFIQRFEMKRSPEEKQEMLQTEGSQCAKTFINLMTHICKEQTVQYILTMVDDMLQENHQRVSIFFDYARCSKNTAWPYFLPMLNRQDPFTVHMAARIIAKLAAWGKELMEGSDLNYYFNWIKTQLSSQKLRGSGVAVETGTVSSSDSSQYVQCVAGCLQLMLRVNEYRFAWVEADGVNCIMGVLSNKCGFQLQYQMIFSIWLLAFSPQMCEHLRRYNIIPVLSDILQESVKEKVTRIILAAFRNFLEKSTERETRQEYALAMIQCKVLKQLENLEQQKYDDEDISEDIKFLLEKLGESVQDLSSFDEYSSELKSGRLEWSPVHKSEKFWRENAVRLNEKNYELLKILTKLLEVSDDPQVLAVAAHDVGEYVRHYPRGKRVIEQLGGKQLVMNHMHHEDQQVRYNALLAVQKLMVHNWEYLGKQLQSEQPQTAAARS
T7 sequence (Q5SRE5 whole entry): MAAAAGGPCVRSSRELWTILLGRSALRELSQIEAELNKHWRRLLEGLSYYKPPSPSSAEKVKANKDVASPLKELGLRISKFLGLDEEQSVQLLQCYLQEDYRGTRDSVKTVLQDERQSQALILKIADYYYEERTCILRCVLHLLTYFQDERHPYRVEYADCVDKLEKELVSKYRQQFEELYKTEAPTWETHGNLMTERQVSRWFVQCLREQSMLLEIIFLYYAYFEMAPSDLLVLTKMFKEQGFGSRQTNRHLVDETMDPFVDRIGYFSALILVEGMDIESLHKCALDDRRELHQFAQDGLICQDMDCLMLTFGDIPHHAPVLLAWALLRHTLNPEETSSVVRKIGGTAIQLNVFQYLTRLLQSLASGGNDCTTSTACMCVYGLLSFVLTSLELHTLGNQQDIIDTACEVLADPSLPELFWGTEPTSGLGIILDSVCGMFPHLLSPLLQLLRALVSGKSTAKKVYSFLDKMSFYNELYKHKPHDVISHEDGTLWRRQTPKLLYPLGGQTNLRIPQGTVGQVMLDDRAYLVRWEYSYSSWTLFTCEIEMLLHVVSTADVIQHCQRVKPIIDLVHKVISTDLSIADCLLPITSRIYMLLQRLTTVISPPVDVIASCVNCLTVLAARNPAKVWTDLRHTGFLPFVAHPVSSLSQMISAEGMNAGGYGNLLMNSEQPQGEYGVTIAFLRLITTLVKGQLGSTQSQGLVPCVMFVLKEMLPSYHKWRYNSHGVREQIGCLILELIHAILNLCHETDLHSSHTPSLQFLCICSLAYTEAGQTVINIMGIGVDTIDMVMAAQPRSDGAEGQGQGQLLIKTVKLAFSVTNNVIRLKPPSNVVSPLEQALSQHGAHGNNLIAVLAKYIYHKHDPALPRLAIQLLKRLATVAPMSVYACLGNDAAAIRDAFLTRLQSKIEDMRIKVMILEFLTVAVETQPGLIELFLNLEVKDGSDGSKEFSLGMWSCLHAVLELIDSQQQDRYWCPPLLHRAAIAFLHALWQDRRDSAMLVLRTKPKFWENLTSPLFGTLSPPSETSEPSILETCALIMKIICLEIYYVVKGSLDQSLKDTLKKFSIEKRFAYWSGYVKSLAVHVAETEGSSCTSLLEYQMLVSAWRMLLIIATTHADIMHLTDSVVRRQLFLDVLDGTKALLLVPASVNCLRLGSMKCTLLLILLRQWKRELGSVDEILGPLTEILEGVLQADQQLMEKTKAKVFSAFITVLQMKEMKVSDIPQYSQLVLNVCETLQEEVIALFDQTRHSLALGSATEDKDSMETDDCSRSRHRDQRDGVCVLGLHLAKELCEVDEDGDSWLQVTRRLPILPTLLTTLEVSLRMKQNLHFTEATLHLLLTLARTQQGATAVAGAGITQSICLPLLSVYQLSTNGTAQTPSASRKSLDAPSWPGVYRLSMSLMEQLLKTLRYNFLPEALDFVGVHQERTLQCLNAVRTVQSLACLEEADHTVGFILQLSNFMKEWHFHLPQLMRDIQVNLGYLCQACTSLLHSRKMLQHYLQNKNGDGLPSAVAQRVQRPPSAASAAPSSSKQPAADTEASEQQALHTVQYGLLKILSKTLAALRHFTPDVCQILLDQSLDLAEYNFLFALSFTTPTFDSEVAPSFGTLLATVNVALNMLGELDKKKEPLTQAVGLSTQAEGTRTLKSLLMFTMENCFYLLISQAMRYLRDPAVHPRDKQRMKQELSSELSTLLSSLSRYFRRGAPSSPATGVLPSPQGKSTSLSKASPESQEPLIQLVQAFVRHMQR
T3 sequence (Q92621 whole entry): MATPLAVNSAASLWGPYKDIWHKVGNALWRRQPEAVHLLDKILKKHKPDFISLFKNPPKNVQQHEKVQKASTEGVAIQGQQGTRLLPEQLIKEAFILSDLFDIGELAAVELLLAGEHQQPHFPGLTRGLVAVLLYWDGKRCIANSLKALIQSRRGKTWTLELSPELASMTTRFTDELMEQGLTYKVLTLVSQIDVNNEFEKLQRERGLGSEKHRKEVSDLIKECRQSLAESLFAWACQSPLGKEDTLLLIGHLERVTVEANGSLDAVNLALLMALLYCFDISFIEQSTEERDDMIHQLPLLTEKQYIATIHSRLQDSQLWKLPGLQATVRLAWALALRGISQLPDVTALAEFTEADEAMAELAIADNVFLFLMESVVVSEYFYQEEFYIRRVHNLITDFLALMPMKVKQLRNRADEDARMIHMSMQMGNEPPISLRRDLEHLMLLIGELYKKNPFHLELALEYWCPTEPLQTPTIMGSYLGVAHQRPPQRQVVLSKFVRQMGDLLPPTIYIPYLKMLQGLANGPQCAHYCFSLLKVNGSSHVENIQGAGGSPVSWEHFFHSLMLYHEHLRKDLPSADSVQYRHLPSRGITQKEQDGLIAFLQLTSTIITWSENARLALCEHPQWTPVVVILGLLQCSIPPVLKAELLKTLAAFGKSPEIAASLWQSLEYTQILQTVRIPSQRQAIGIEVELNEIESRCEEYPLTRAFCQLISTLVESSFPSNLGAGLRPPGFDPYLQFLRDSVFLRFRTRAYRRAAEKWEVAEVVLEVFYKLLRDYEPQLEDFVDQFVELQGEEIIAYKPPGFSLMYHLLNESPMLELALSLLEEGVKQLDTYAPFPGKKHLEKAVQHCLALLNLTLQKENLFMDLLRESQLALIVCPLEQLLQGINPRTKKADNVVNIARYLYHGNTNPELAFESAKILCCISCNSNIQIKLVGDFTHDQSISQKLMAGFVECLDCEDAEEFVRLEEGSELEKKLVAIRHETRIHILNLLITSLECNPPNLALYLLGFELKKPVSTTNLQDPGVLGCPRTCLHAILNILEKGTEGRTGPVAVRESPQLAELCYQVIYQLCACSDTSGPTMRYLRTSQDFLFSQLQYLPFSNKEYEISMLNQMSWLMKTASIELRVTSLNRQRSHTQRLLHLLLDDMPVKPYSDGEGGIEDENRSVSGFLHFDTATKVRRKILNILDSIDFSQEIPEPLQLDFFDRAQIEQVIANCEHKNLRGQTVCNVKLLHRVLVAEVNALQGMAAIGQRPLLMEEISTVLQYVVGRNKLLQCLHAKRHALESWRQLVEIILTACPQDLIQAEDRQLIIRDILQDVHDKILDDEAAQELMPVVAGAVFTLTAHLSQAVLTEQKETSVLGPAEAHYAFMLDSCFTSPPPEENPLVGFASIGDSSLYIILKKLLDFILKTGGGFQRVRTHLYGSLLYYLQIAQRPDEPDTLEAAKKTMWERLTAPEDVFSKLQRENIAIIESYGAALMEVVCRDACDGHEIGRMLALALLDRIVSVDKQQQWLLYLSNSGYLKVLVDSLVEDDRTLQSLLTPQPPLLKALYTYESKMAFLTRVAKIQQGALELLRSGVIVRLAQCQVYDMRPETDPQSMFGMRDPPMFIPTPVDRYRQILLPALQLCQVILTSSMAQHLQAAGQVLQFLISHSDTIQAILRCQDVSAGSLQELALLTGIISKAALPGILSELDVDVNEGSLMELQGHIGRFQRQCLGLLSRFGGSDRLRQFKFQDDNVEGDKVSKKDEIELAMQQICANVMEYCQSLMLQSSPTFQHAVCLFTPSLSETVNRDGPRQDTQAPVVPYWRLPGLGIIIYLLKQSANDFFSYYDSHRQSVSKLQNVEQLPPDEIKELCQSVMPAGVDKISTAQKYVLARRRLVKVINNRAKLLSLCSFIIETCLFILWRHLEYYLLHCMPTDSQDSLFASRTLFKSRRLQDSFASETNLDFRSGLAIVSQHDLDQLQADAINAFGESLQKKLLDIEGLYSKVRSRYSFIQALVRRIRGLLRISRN

## Nc1nc2c(c(=O)[nH]1)N(C=O)C(CNc1ccc(C(=O)N[C@@H](CCC(=O)O)C(=O)O)cc1)CN2 (stereo partly shown) [LEU, leucovorin]
[1]; HeLa, protein KIAA0564
  fold changes relative to vehicle control: 1
[2]; HeLa, protein SHMT2
  fold changes relative to vehicle control: 1.01
[3]; HeLa, captured protein NUP205
  fold changes relative to vehicle control: 1.03
[4]; HeLa, protein ATP6V1H
  fold changes relative to vehicle control: 1.04
[5]; HeLa, protein ACTB
  fold changes relative to vehicle control: 1.13
[6]; protein DNAJA3, HeLa
  fold changes relative to vehicle control: 0.8
[7]; HeLa, captured protein NUP188
  fold changes relative to vehicle control: 1.13
[8]; protein COPG, HeLa
  fold changes relative to vehicle control: 0.91
[9]; HeLa, protein CLIC1
  fold changes relative to vehicle control: 1.09
[10]; HeLa, protein KIAA1618
  fold changes relative to vehicle control: 0.87

## Nc1nc2[nH]cc(CCc3ccc(C(=O)N[C@@H](CCC(=O)O)C(=O)O)cc3)c2c(=O)[nH]1 [PTX, pemetrexed]
[1]
  fold changes relative to vehicle control: 0.99
[2]
  fold changes relative to vehicle control: 1.13
[3]
  fold changes relative to vehicle control: 1.09
[4]
  fold changes relative to vehicle control: 0.99
[5]
  fold changes relative to vehicle control: 1.18
[6]
  fold changes relative to vehicle control: 0.84
[7]
  fold changes relative to vehicle control: 1.17
[8]
  fold changes relative to vehicle control: 0.95
[9]
  fold changes relative to vehicle control: 1.26
[10]
  fold changes relative to vehicle control: 1.01

## CCCCCCOc1ccc(Cc2cnc(N)nc2N)cc1 [compound 1]
[1]; protein KIAA0564, HeLa
  fold changes relative to vehicle control: 0.99
[2]; HeLa, protein SHMT2
  fold changes relative to vehicle control: 0.8
[3]; captured protein NUP205, HeLa
  fold changes relative to vehicle control: 1.03
[4]; HeLa, protein ATP6V1H
  fold changes relative to vehicle control: 1.24
[5]; protein ACTB, HeLa
  fold changes relative to vehicle control: 1.25
[6]; captured protein DNAJA3, HeLa
  fold changes relative to vehicle control: 0.84
[7]; HeLa, protein NUP188
  fold changes relative to vehicle control: 1.07
[8]; protein COPG, HeLa
  fold changes relative to vehicle control: 0.93
[9]; protein CLIC1, HeLa
  fold changes relative to vehicle control: 1.21
[10]; protein KIAA1618, HeLa
  fold changes relative to vehicle control: 0.98

## CCCCCCOc1cccc(Cc2cnc(N)nc2N)c1 [compound 2]
[1]; protein KIAA0564, HeLa
  fold changes relative to vehicle control: 1.11
[2]; HeLa, protein SHMT2
  fold changes relative to vehicle control: 1.53
[3]; captured protein NUP205, HeLa
  fold changes relative to vehicle control: 1.1
[4]; HeLa, protein ATP6V1H
  fold changes relative to vehicle control: 1.21
[5]; protein ACTB, HeLa
  fold changes relative to vehicle control: 1.5
[6]; captured protein DNAJA3, HeLa
  fold changes relative to vehicle control: 1.16
[7]; HeLa, protein NUP188
  fold changes relative to vehicle control: 1.08
[8]; protein COPG, HeLa
  fold changes relative to vehicle control: 1.39
[9]; protein CLIC1, HeLa
  fold changes relative to vehicle control: 2.13
[10]; protein KIAA1618, HeLa
  fold changes relative to vehicle control: 0.95

## Nc1nc2cccc(-c3ccccc3)c2n1Cc1ccc(Cl)c(Cl)c1 [compound 3]
[1]; protein KIAA0564, HeLa
  fold changes relative to vehicle control: 1.1
[2]; HeLa, protein SHMT2
  fold changes relative to vehicle control: 0.92
[3]; captured protein NUP205, HeLa
  fold changes relative to vehicle control: 1.18
[4]; HeLa, protein ATP6V1H
  fold changes relative to vehicle control: 1.17
[5]; protein ACTB, HeLa
  fold changes relative to vehicle control: 1.07
[6]; captured protein DNAJA3, HeLa
  fold changes relative to vehicle control: 1.05
[7]; HeLa, protein NUP188
  fold changes relative to vehicle control: 1.07
[8]; protein COPG, HeLa
  fold changes relative to vehicle control: 1.14
[9]; protein CLIC1, HeLa
  fold changes relative to vehicle control: 0.87
[10]; protein KIAA1618, HeLa
  fold changes relative to vehicle control: 1.04

## NCCOCCOCC(=O)Nc1nc2ncc(CNc3ccc(C(=O)NC(CCC(=O)O)C(=O)O)cc3)nc2c(=O)[nH]1 (stereo not shown) [compound 6]
[1]; HeLa, protein KIAA0564
  fold changes relative to vehicle control: 1.1
[2]; HeLa, protein SHMT2
  fold changes relative to vehicle control: 1.3
[3]; HeLa, captured protein NUP205
  fold changes relative to vehicle control: 1.16
[4]; HeLa, protein ATP6V1H
  fold changes relative to vehicle control: 1.13
[5]; HeLa, protein ACTB
  fold changes relative to vehicle control: 1.39
[6]; protein DNAJA3, HeLa
  fold changes relative to vehicle control: 1.2
[7]; HeLa, captured protein NUP188
  fold changes relative to vehicle control: 1.17
[8]; protein COPG, HeLa
  fold changes relative to vehicle control: 1.03
[9]; HeLa, protein CLIC1
  fold changes relative to vehicle control: 1.44
[10]; HeLa, protein KIAA1618
  fold changes relative to vehicle control: 1.21

## NCCCNc1ccc(C(=O)NC(CCC(=O)O)C(=O)O)cc1 (stereo not shown) [compound 7]
[1]; HeLa, protein KIAA0564
  fold changes relative to vehicle control: 1.09
[2]; HeLa, protein SHMT2
  fold changes relative to vehicle control: 1.02
[3]; HeLa, captured protein NUP205
  fold changes relative to vehicle control: 1.16
[4]; HeLa, protein ATP6V1H
  fold changes relative to vehicle control: 1.01
[5]; HeLa, protein ACTB
  fold changes relative to vehicle control: 1.04
[6]; protein DNAJA3, HeLa
  fold changes relative to vehicle control: 1.06
[7]; HeLa, captured protein NUP188
  fold changes relative to vehicle control: 1.07
[8]; protein COPG, HeLa
  fold changes relative to vehicle control: 1.03
[9]; HeLa, protein CLIC1
  fold changes relative to vehicle control: 0.99
[10]; HeLa, protein KIAA1618
  fold changes relative to vehicle control: 1
